doi:10.1101/2022.01.01.474692v1 (bioRxiv, 2022)
Where no end group is shown, it is not given here.

Assay: Solubility and behaviour in water
Type: physicochemical

behaviour of solution in pure water (solubilised in pure water, pH not lowered): tends to spontaneously aggregate
solubility in water (water, no solvent pre-treatment, solution clear and transparent): freely soluble in water
Substance: GNNQQNY [GNNQQNY]
